# Laboratory results from patent US8084459B2, “Substituted quinazolinones for treating neurological conditions” (Prana Biotechnology Ltd, priority 2004, dated 2011).
# Where a name gives a salt, the structure may show the parent alone.
# Experiments:
# [1] = biological target: T1, Aβ 1-42 (Homo sapiens, UniProt P05067); experiment: Assay 1 Fluorometric H2O2 assay (peroxide); assay type: biochemical; conditions: inhibition of H2O2 generation by Aβ with copper
# T1 construct: The reaction solutions contained Aβ 1-42 at concentrations
# T1 sequence (P05067 672-713 limits assumed): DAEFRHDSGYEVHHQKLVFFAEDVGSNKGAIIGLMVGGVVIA
# Experimental: Assay 1. Fluorometric H2O2 Assay
# A fluorometric assay was used to test the ability of a test compound to inhibit hydrogen peroxide generation by Aβ in the presence of copper based on dichlorofluoroscein diacetate (DCF; Molecular Probes, Eugene Oreg.). The DCF solution (5 mM) in 100% dimethyl sulphoxide (previously purged with argon for 1 hr at 20° C.) was deacetylated in the presence of 0.025M NaOH for 30 min and neutralised at pH 7.4 to a final concentration of 1 mM. Horseradish peroxidase (HRP) stock solution was prepared to 1 μM at pH 7.4. The reactions were carried out in PBS, pH 7.4 in a 96 well plate (total volume=250 μl/well). The reaction solutions contained Aβ 1-42 at concentrations in the range of 50 nM to 1 μM, copper-glycine chelate (Cu-Gly), was prepared by adding CuCl2 to glycine in the ratio of 1:6 and added to the Aβ in the proportion 2Cu-Gly:1Aβ), reducing agents including dopamine (5 μM) or ascorbic acid, deacetylated DCF 100 μM, and HRP, 0.1 μM. 1-10 μM EDTA or another chelator may also be present as a control for free copper, but was not required for the assay to function. The reaction mixture was incubated at 37 C for 60 min. Catalase (4000 units/ml) and H2O2 (1-2.5 μM) standards in PBS pH 7.4 may be included as positive controls. Fluorescence was recorded using a plate reader with excitation and emission filters at […] respectively. H2O2 concentration may be established by comparing fluorescence with the H2O2 standards. Inhibition of Aβ H2O2 production was assayed by including a given concentration of test compound(s) in the test wells.
# [2] = Assay 3(d) test compound cytotoxicity (MTS); assay type: cell-based; conditions: BL6Jx129sv, mouse, primary cortical neuronal cultures, cortical neurons; for viability at 4 days, 1 µM: read-out: Assay 3(d) Cytotoxicity (% viable at 1 uM); for viability at 4 days, 10 µM: read-out: Assay 3(d) Cytotoxicity (% viable at 10 uM)
# Experimental: Primary Cortical Neuronal Cultures
# Cortical cultures were prepared as previously described (White et al., 1998). Embryonic day 14 BL6Jx129sv mouse cortices were removed, dissected free of meninges and dissociated in 0.025% (wt/vol) trypsin. Dissociated cells were plated in 48 well culture plates at a density of 2×10^6 cells/mL in MEM with 25% (vol/vol) FCS and 5% (vol/vol) HS and incubated at 37° C., 2 hrs. Media was then replaced with Neurobasal media (Invitrogen Life Technologies) and B27 supplements (Invitrogen Life Technologies). Cultures were maintained at 37° C. in 5% CO2. Prior to experimentation, the culture medium was replaced with Neurobasal media and B27 minus antioxidants (Invitrogen Life Technologies).
# (a) MTS Assay for Cell Viability
# Cell viability is determined using the MTS assay. Culture medium is replaced with fresh neurobasal medium plus B27 supplements minus antioxidants. 1/10 volume MTS solution (Cell Titre 96 Aqueous One, Promega Corporation) and incubated at 37° C., 2 hrs. 200 microlitre aliquots are measured with a spectrophotometer at 560 nm.
# (d) Assay for Test Compound Cytoxicity
# Neuronal cortical cells were cultured for five days as per Assay 2 in NB media and B27 supplement.
# On day six the test compounds were added to the neuronal cell cultures in NB media and B27 supplement minus antioxidants.
# Test compounds were dissolved in 100% DMSO to a concentration of 2.5 mM (10 mM if excess compound was weighed out per vial—then diluted to 2.5 mM). 2.5 mM stock solution was serially diluted 1 in 10 to give working solutions of 250 uM, 25 uM, 2.5 uM. Test compounds were not added directly to cells, instead they were added to a 48 well ‘Drug Plate’ as comprised below:
# Preparation of “Drug Plate”:
# • Well 1: 576 ul NB+B27 (no antioxidant)*+24 ul 2.5 uM test compound • Well 2: 576 ul NB+B27 (no antioxidant)+24 ul 25 uM test compound • Well 3: 576 ul NB+B27 (no antioxidant)+24 ul 250 uM test compound • Well 4: 576 ul NB+B27 (no antioxidant)+24 ul 2.5 uM test compound • Well 5: 576 ul NB+B27 (no antioxidant)+24 ul 25 uM test compound • Well 6: 576 ul NB+B27 (no antioxidant)+24 ul 250 uM test compound • Well 7: 576 ul NB+B27 (no antioxidant)+24 ul test compound diluent** • Well 8: 600 ul NB+B27 (no antioxidant)
# The Drug Plate was incubated at 37° C. for 15 mins. 200 ul of each well was added in triplicate to the corresponding cell plate. The cell plate was incubated at 37° C., for 4 days, (2 compounds are tested on each plate of cells).
# * NB media and B27 (no antioxidants),
# ** PBT diluent 10% DMSO in NB+B27 (no antioxidants)
# On completion of the assay, 1/10 volume MTS was added per well of plate (ie 25 ul/250 ul). The plates were incubated at 37° C. for 2 hrs, and then absorbance was read at 560 nm.
# [3] = Assay 16 mouse plasma levels of test compounds; assay type: in vivo; conditions: highest level found in mice (Up to); oral dosing 30 mg/kg described for PB 1075-1077
# Experimental: Assay 16. Determination of Mouse Plasma Levels of Test Compounds PB 1075
# (§1) Oral administration of PB 1075 at 30 mg/kg, as a suspension in Na-Carboxymethyl Cellulose (CMC) was administered by oral gavage to four mice. Two mice were sacrificed 30 minutes after administration and two mice were sacrificed 60 minutes after administration. Blood was obtained by cardiac puncture and plasma separated by centrifugation.
# The concentration of PB 1075 was determined by LC/MS using the triple quadrupole instrument. The mobile phase consisted of an acetonitrile (ACN)/water gradient (containing 0.05% Formic acid) and the column was a Phenomenex Lunea 5 um C8 (50×2 mm) column.
# The supplied acute toxicity mouse plasma samples were directly injected following a protein precipitation with ACN. The analytical method in plasma was linear in the range of 10 to 10,000 ng/ml (R^2=0.994). Recovery of PB 1075 from plasma was ˜100%.
# as §1, with “1076” for “1075”
# The concentration of PB 1076 was determined by LC/MS using the triple quadrupole instrument. The mobile phase consisted of an acetonitrile (ACN)/water gradient (containing 0.05% Formic acid) and the column was a Phenomenex Luna 5 μM C8 (50×2 mm) column.
# The mouse plasma samples were directly injected following a protein precipitation with ACN. The analytical method in plasma was linear in the range of 500 to 10,000 ng/ml (R^2=0.999). Recovery of PB 1076 from plasma was ˜85%.
# as §1, with “1077” for “1075”
# The concentration of PB 1077 was determined by LC/MS using the triple quadrupole instrument. The mobile phase consisted of an acetonitrile (ACN)/water gradient (containing 0.05% Formic acid) and the column was a Phenomenex Luna 5 μM C8 (50×2 mm) column.
# The mouse plasma samples were directly injected following a protein precipitation with ACN. The analytical method in plasma was linear in the range of 5 to 5,000 ng/ml (R^2=0.999). Recovery of PB 1077 from plasma was ˜92%.
IC50 [1] [nM],Assay 16 Mice plasma concentration [3],SMILES,"viability at 4 days, 1 µM [2] [%]","viability at 4 days, 10 µM [2] [%]"
880,–,CCn1cnc2c(O)ccc(Cl)c2c1=O [Compound 1130],–,–
730,Up to 262 ng/mL in,CN1CCCC1CCn1cnc2c(O)c(Cl)cc(Cl)c2c1=O (centres unmarked) [Compound 1078],94,94
730,–,CCn1cnc2c(O)c(Cl)cc(Cl)c2c1=O [Compound 1115],101,73
4500,–,Cc1cnc(-n2cnc3c(O)c(Cl)cc(Cl)c3c2=O)s1 [Compound 1082],94,70
500,–,CCCn1cnc2c(O)ccc(Cl)c2c1=O [Compound 1131],–,–
440,–,Br.Cc1cccnc1Cn1cnc2c(O)c(Cl)cc(Cl)c2c1=O [Compound 1098],99,88
400,–,Br.CC(C)Cn1cnc2c(O)c(Cl)cc(Cl)c2c1=O [Compound 1107],92,59
690,–,"Nn1cnc2c(O)c(Cl)cc(Cl)c2c1=O [Compound 1099, 3-Amino-5,7-dichloro-8-hydroxy-3H-quinazolin-4-one hydrobromide]",–,–
860,–,O=c1c2c(Cl)cc(Cl)c(O)c2ncn1-c1cccnc1 [Compound 1092],95,81
330,Upto 2949 ng/mL in,Br.CCC(C)n1cnc2c(O)c(Cl)cc(Cl)c2c1=O (centres unmarked) [Compound 1112],89,46
390,–,COc1ccc(-n2cnc3c(O)c(Cl)cc(Cl)c3c2=O)cn1 [Compound 1093],122,13
2300,–,Cn1c(-n2cnc3c(O)c(Cl)cc(Cl)c3c2=O)nc2ccccc21 [Compound 1083],–,97
320,–,CCCCn1cnc2c(O)c(Cl)cc(Cl)c2c1=O [Compound 1111],93,67
390,–,O=c1c2c(Cl)cc(Cl)c(O)c2ncn1N1CCCCC1 [Compound 1086],98,51
460,–,CCN(CC)CCn1cnc2c(O)c(Cl)cc(Cl)c2c1=O [Compound 1110],–,77

SMILES,IC50 [1] [nM],Assay 16 Mice plasma concentration [3],"viability at 4 days, 1 µM [2] [%]","viability at 4 days, 10 µM [2] [%]"
CNCc1nc2c(O)c(Cl)cc(Cl)c2c(=O)n1C [Compound 1161],140,–,–,–
CN(C)Cc1nc2c(O)c(Cl)cc(Cl)c2c(=O)[nH]1 [Compound 1147],260,–,–,–
C/C=C/Cn1cnc2c(O)c(Cl)cc(Cl)c2c1=O [Compound 1126],370,–,–,–
CC(Br)CCn1cnc2c(O)c(Cl)cc(Cl)c2c1=O (centres unmarked) [Compound 1114],580,–,–,73
Br.CC(C)n1cnc2c(O)c(Cl)cc(Cl)c2c1=O [Compound 1108],250,–,100,53
